The record followed here is US8980846B2, “Composition containing styraxlignolide A or the aglycone thereof as an active ingredient for preventing or treating asthma” (Korea Research Institute of Bioscience and Biotechnology, priority 2010, dated 2015).

Read-outs that look alike come from different tables or passages of the source.

Data set [1] is described as follows: Body weight in asthma-induced mice. The class given is in vivo, Balb/c female mice. As for the experimental part:
(§1) To prepare bronchial asthma-induced experimental animals, six-week-old Balb/c female mice of mean weight about 20 g were used. After one week of adaptation, individuals which had no observed abnormality on a basic physical examination were targeted. 200 μL of phosphate buffered saline (PBS)(pH 7.4) in which 2 mg of aluminum hydroxide (A8222, Sigma, St. Louis, Mo.) and 20 μg of ovalbumin (A5503, Sigma, St. Louis, Mo.) were suspended was injected into the peritoneal cavity at two-week intervals to result in sensitization. On days 28 to 30 after the first intraperitoneal administration of ovalbumin, inhalation challenge was performed for 30 min with 1% ovalbumin using an ultrasonic atomizer. 24 hours after the last antigen administration, airway hyperresponsiveness was measured. After 24 hours, a lethal dose of pentobarbital (Entobar®, Hanlim Pharm Co., Ltd.) was administered, body weight measurement and bronchotomy were performed, and bronchoalveolar lavage was performed with a total 1.2 mL of physiological saline, and then, samples were collected. […] Eight white mice were used for each group. Experimental groups for homoegonol were a group (hE7.5) in which animals were orally administered with 7.5 mg/kg homoegonol 1 hour prior to ovalbumin inhalation, a group (hE15) in which animals were orally administered with 15 mg/kg homoegonol 1 hour prior to ovalbumin inhalation, and a group (hE30) in which animals were orally administered with 30 mg/kg homoegonol 1 hour prior to ovalbumin inhalation, and five white mice were used for each group.
To determine an effect of styraxlignolide A on reduction in body weight in asthma-induced mice, body weight of each mouse prepared in Example 2 was measured. For statistical analyses for all measurements, means and standard errors (mean±S.E.) according to a number of variables were calculated, and comparison between each group was analyzed by performing a Mann-whitney U test using SPSS 10.0. Statically significance was accepted at p<0.05.
To determine an effect of homoegonol on reduction in body weight in asthma-induced mice, body weight of each mouse prepared in Example 2 was measured. For statistical analyses for all measurements, means and standard errors (mean±S.E.) according to a number of variables were calculated, and comparison between each group was analyzed by performing a Mann-whitney U test using SPSS 10.0. Statically significance was accepted at p<0.05.

For data set [2], the system named is alanine aminotransferase (ALT) and aspartate aminotransferase (AST) in serum. Format: in vivo. The method, then:
as §1
To examine liver toxicity of styraxlignolide A, a commercially available ELISA kit (BECKMAN Coulter, Inc., Fullerton, Calif., USA) was used to measure alanine aminotransferase (ALT) and aspartate aminotransferase (AST) in serum.

Another data set relates to ovalbumin-specific IgE. In words: IgE levels in serum and bronchoalveolar lavage fluid (ELISA). The class given is in vivo, Balb/c female mice. The conditions noted are these: asthma-induced mice. As for the experimental part:
as §1
To measure serum and bronchoalveolar lavage fluid ovalbumin-specific IgE levels caused by administration of styraxlignolide A, an immunoenzyme technique was used. 20 μg/mL of ovalbumin was dissolved in a 0.1 M NAHCO3 buffer (pH 8.3), and was placed into a 96-well flat bottom ELISA plate to be coated at 4° C. overnight. Non-specific binding was blocked with PBS containing 1% bovine serum albumin, and a serum sample was diluted 1:400 and was allowed to react at room temperature for 2 hours. Then, the plate was washed well, and anti-mouse IgE monoclonal antibody was diluted 1:300 and was allowed to react for 2 hours. Then, HRP-conjugated goat anti-rat IgG polyclonal antibody which was coupled to peroxidase was diluted 1:4000 and was allowed to react at room temperature for 1 hour, and then, was washed. For color development, 3,3′,5,5′-tetramethylbezidine substrate was allowed to react, and the spectroscopic absorbance was measured at 650 nm.
To measure IgE levels which are correlated with severity of asthma to examine the effect of homoegonol on asthma, IgE levels in serum and bronchoalveolar lavage fluid were measured according to the method in <Experimental Example 4>.
On the technique in general: In an ELISA, binding on a coated surface is turned into a signal by an enzyme label.

For data set [3], the system named is inflammatory cells in bronchoalveolar lavage fluid. Nature of the data set: Inflammatory cell counts in bronchoalveolar lavage fluid (Diff-Quick staining). The class given is in vivo, Balb/c female mice. The conditions noted are these: asthma-induced mice. The method, then: as §1
Bronchoalveolar lavage fluid was collected from individuals of each experimental group in <Example 2> and right after the collection, fluid was stained with trypan blue. The number of total cells except dead cells was calculated using a hemocytometer. Then, Diff-Quick staining (Sysmex, Swizerland) was performed after smear preparation with Cytospin II, and eosinophils and other inflammatory cells were differentially counted.
To examine the effect of homoegonol on asthma, variation in the numbers of asthma-related inflammatory cells was measured according to the method in <Experimental Example 3>.

Another data set relates to goblet cells. Nature of the data set: Ratio of goblet cells to bronchial epithelial cells (PAS staining). Format: in vivo, Balb/c female mice. The conditions noted are these: asthma-induced mice. The method, then: as §1
Lungs removed from each individual were subjected to conventional formalin fixation and paraffin embedding, and permanent section slides of 4 μm thickness were prepared, and periodic acid Schiff (PAS) staining was performed to determine goblet cells. Proliferation of goblet cells was assessed by measuring the ratio of goblet cells to bronchial epithelial cells.
In accordance with the method in <Experimental Example 7-2>, the ratio of goblet cells which were determined by periodic acid-Schiff staining to bronchial epithelial cells were measured to assess proliferation of goblet cells.

Data set [4] deals with inflammatory cells in bronchoalveolar lavage fluid. In words: Inflammatory cell counts in bronchoalveolar lavage fluid (Diff-Quick staining). The class given is in vivo, Balb/c female mice. The conditions noted are these: asthma-induced mice, styraxlignolide A study.
The next data set deals with IL-17. Nature of the data set: IL-17 in bronchoalveolar lavage fluid. Format: in vivo, Balb/c female mice. The settings on record: asthma-induced mice, homoegonol study; 30 mg/kg PO. The method, then:
as §1
(§2) To examine the effect of homoegonol on airway remodeling, generation of TGF-β1 and IL-17 in bronchoalveolar lavage fluid was measured.

In a further data set the test system is TGF-β1. In words: TGF-β1 in bronchoalveolar lavage fluid. Format: in vivo, Balb/c female mice. The settings on record: asthma-induced mice, homoegonol study; 30 mg/kg PO. The method, then:
as §1, §2

The test system of data set [5] is airway hyperresponsiveness. In words: Airway hyperresponsiveness, Penh by one chamber plethysmography after methacholine inhalation. Format: in vivo, Balb/c female mice. The settings on record: asthma-induced mice; for Penh values: homoegonol study, 30 mg/kg PO. The method, then:
as §1, with “Experimental groups for homoegonol were a group (hE7.5) in which animals were orally administered with 7.5 mg/kg homoegonol 1 hour prior to ovalbumin inhalation, a group (hE15) in which animals were orally administered with 15 mg/kg homoegonol 1 hour prior to ovalbumin inhalation, and a group (hE30) in which animals were orally administered with 30 mg/kg homoegonol 1 hour prior to ovalbumin inhalation, and five white mice were used for each group.” left out
The effect of styraxlignolide A on airway hyperresponsiveness caused by asthma occurrence was examined by measuring airway resistance with one chamber plethysmography (All medicus, Seoul, Republic of Korea) and degree of airway resistance was assessed by measuring Penh (enhanced pause) values. The baseline value was measured under a normal respiratory condition, and then, PBS was inhaled using an ultrasonic atomizer for 3 min, and Penh values were measured over 3 min. […] Louis, Mo.) which is used in general methods for diagnosis of bronchial asthma were inhaled and Penh values were measured. Penh value is shown in the following Equation 1, and the resulting Penh value was expressed as a percent increase in Penh after inhalation of each concentration of methacholine. The baseline Penh (saline challenge) was expressed as 100%.
Te: expiratory time (sec), the time from inspiration to the next inspiration
RT: relaxation time, the elapsed time between the beginning of the expiration and the moment when the remaining 30% of the tidal volume has been reached during expiration
PEF: Peak expiration flow
PIF: Peak inspiration flow
To examine the effect of homoegonol on airway hyperresponsiveness caused by asthma occurrence, Penh value was measured according to the method in <Experimental Example 2>.

In data set [6] the test system is inflammatory cells in the airway mucosa. In words: Inflammatory cell infiltration in airway mucosa, inflammatory index (H&E staining). Format: in vivo, Balb/c female mice. The conditions noted are these: asthma-induced mice, styraxlignolide A study; 30 mg/kg PO 1 hour prior to ovalbumin inhalation; scale 0-4.
The test system of data set [7] is fibrosis in subsegmental bronchi. In words: Fibrosis in subsegmental bronchi (Masson's trichrome staining). Format: in vivo, Balb/c female mice. The conditions noted are these: asthma-induced mice, styraxlignolide A study; 1 hour prior to ovalbumin inhalation. As for the experimental part: as §1
For a further data set, the system named is reactive oxygen species. In words: Reactive oxygen species generation in bronchoalveolar lavage fluid (2,7-dichlorofluorescein diacetate). Format: in vivo, Balb/c female mice. The arrangement: dose or concentration left out as unconfirmed. The settings on record: asthma-induced mice, styraxlignolide A study, 1 hour prior to ovalbumin inhalation. The method, then: To prepare bronchial asthma-induced experimental animals, six-week-old Balb/c female mice of mean weight about 20 g were used. After one week of adaptation, individuals which had no observed abnormality on a basic physical examination were targeted. 200 μL of phosphate buffered saline (PBS)(pH 7.4) in which 2 mg of aluminum hydroxide (A8222, Sigma, St. Louis, Mo.) and 20 μg of ovalbumin (A5503, Sigma, St. Louis, Mo.) were suspended was injected into the peritoneal cavity at two-week intervals to result in sensitization. On days 28 to 30 after the first intraperitoneal administration of ovalbumin, inhalation challenge was performed for 30 min with 1% ovalbumin using an ultrasonic atomizer. 24 hours after the last antigen administration, airway hyperresponsiveness was measured. […]
To measure the amount of generated reactive oxygen species caused by administration of styraxlignolide A, some bronchoalveolar lavage fluid of each individual in <Example 2> was washed with PBS, and 10 μM 2,7-dichlorofluorescein diacetate (35845, Sigma, St. Louis, Mo.) was added thereto and bronchoalveolar lavage fluid was allowed to stand still in a room temperature dark room for 10 min, and the amount of generated reactive oxygen species was measured by a spectrofluorometer (Ex=480 nm, Em=522 nm).

Setting [8] is: styraxlignolide A study, 30 mg/kg PO 1 hour prior to ovalbumin inhalation.
Setting [9] is: homoegonol study, 30 mg/kg PO, bronchoalveolar lavage fluid.
Where [10] appears, read: homoegonol study, 30 mg/kg PO, bronchoalveolar lavage fluid, 30 mg/kg.
Where [11] appears, read: asthma-induced mice, styraxlignolide A study, 30 mg/mL PO 1 hour prior to ovalbumin inhalation.

On to `CC(C)(O)c1ccccc1CC[C@@H](SCC1(CC(=O)O)CC1)c1cccc(/C=C/c2ccc3ccc(Cl)cc3n2)c1` [Monte, montelukast, reference compound], for which the body weight was 21.08 ± 0.57 g in [1] (homoegonol study, 30 mg/kg PO 1 hour prior to ovalbumin inhalation) and 21.04 ± 0.30 g in data set [1] (setting [8]). For the same compound, the “serum ALT” value in data set [2] (mouse, in vivo, po, 30 mg/kg) is recorded as 122.50±14.94 IU/L. In [2] (mouse, in vivo, po, 30 mg/kg), the “serum AST” value was 205.00±27.17 IU/L. Moreover, in the data set on ovalbumin-specific IgE (setting [9]), the “Total IgE level in bronchoalveolar lavage fluid” value was found to be 104.7447 ± 9.7295 ng/mL. For the same compound, the “Total serum IgE level” value with ovalbumin-specific IgE (homoegonol study, 30 mg/kg PO, serum, Table 2) came out at 16.22 ± 2.6329 µg/mL. In addition, the “Number of cells, Other inflammatory cells” value in data set [3] (setting [9]) is 48.84 ± 3.7377 ×10^3 cells/mouse. The “Number of cells, Eosinophils” value in [3] (setting [10]) is given as 19.12±9.17 ×10^3 cells/mouse. In addition, in data set [3] (setting [10]), the “Number of cells, Total inflammatory cells” value is 67.96±15.0532 ×10^3 cells/mouse. For the same compound, the “numbers of total inflammatory cells in bronchoalveolar lavage fluid” value in data set [3] (setting [8]) is on record as 193.29±19.99. Also, the “Goblet cells %/bronchial epithelial cell unit” value in the data set with goblet cells (homoegonol study, 30 mg/kg PO, 30 mg/kg) turned out to be 34.6476±11.5492%. In addition, the “numbers of eosinophils in bronchoalveolar lavage fluid” value in [4] (30 mg/kg PO 1 hour prior to ovalbumin inhalation) was 60.67±6.58. For the same compound, in the data set with IL-17, the “IL-17 concentrations in bronchoalveolar lavage fluid” value amounted to 15.8409 ± 2.5686 pg/mL. Besides, in the data set with TGF-β1, the “TGF-β1 concentrations in bronchoalveolar lavage fluid” value was determined as 215.9375 ± 13.4334 pg/mL. The Penh values in data set [5] (methacholine 0 mg/ml) came to 0.6071 ± 0.0618; in data set [5] (methacholine 12.5 mg/ml), 1.2979 ± 0.1537; in [5] (methacholine 25 mg/ml), 1.4748 ± 0.1639; in data set [5] (methacholine 50 mg/ml), 2.3069 ± 0.4225.
In [6], `COc1ccc(-c2cc3cc(CCCO[C@@H]4OC(CO[C@@H]5OC[C@@H](O)C(O)C5O)[C@@H](O)C(O)C4O)cc(OC)c3o2)cc1OC` (stereo partly drawn) [styraxlignolide A] registered a peribronchiolar inflammatory index of 1.17±0.2. In data set [1] (styraxlignolide A study, 30 mg/mL PO 1 hour prior to ovalbumin inhalation), this compound had a body weight of 21.04 ± 0.34 g. Further, in [2] (setting [11]), the “serum ALT” value stood at 168.67±15.56 IU/L and the “serum AST” value worked out at 245.33±12.87 IU/L. For the same compound, the “area of a fibrosis stained region per 100 μm of a basement membrane perimeter” value in data set [7] was 495.69±98.62 μm^2. The “Ovalbumin-specific IgE level in bronchoalveolar lavage fluid” value in the data set with ovalbumin-specific IgE (styraxlignolide A study, 1 hour prior to ovalbumin inhalation, bronchoalveolar lavage fluid) was 15.4 ± 2.18 ng/mL. In addition, the “serum ovalbumin-specific IgE level” value in the data set with ovalbumin-specific IgE (styraxlignolide A study, 1 hour prior to ovalbumin inhalation, serum, difference to asthma-induced group not significant) was found to be 382 ± 60.60 ng/mL. Also, in the data set on reactive oxygen species, the “generated amount of reactive oxygen species, reduction compared to the asthma-induced group” value was 27.90%. Besides, the “ratio of goblet cells to bronchiolar epithelial cells” value in the data set on goblet cells (styraxlignolide A study, 1 hour prior to ovalbumin inhalation) is 29.52±8.02%. In addition, the “numbers of eosinophils in bronchoalveolar lavage fluid” value in [4] (30 mg/mL PO 1 hour prior to ovalbumin inhalation) amounted to 20.77±2.34. For the same compound, the “numbers of total inflammatory cells in bronchoalveolar lavage fluid” value in data set [4] (1 hour prior to ovalbumin inhalation) turned out to be 147.83±12.61. Also, the “Penh (enhanced pause) values compared to the comparative groups” value in [5] (styraxlignolide A study, 30 mg/mL PO 1 hour prior to ovalbumin inhalation, methacholine 12.5, 25, or 50 mg/mL) is “reduced Penh values compared to the comparative groups”.
